In ChEMBL document CHEMBL5390235, “Reading and erasing of histone crotonyllysine mimics by the AF9 YEATS domain and SIRT2 deacylase” (Bioorg Med Chem, 2023) one finds Kd and Activity data, which are given here for eight compounds.

For one assay, the target named is T1, Protein AF-9 (Homo sapiens, UniProt P42568).
T1 sequence (P42568 whole entry): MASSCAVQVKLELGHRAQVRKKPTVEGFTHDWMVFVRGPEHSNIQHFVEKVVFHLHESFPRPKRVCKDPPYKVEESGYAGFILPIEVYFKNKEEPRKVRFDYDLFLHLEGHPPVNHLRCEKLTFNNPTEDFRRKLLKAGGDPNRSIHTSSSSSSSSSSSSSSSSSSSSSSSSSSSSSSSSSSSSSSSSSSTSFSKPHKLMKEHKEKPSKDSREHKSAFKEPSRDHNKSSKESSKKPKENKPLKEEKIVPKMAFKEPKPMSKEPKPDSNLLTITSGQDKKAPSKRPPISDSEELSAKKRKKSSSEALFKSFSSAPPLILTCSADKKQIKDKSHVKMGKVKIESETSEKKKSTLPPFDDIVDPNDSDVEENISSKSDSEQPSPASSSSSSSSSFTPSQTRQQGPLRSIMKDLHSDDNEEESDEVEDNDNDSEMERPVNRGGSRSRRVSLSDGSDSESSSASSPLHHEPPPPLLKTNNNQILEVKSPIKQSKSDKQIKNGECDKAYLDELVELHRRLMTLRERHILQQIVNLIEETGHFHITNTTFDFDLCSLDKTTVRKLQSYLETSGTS
The experiment in a line: Binding affinity to N-terminal His-tagged recombinant human AF9 YEATS domain (1 to 138 residues) expressed in Escherichia coli 2(DE3)pLysS cells assessed as dissociation constant by ITC assay.

Assay [1] concerns the target T2, NAD-dependent protein deacetylase sirtuin-2 (Homo sapiens) (UniProt Q8IXJ6).
T2 sequence (whole entry): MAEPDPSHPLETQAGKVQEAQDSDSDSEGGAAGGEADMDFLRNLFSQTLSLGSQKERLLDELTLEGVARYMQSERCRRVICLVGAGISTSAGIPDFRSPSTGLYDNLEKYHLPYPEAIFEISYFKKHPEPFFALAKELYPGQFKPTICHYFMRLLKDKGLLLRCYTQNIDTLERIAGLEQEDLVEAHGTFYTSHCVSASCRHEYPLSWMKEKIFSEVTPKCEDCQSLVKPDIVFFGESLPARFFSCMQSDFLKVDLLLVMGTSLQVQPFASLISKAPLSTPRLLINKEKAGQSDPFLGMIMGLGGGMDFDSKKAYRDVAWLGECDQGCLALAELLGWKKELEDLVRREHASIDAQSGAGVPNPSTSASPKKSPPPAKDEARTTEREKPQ
The experiment in a line: Induction of recombinant human SIRT2 (50 to 356 residues) deacetylase activity measured after 6 hrs in presence of NAD+ by MALDI-TOF-MS analysis. Further details: concentration or dose not given beside the values.

Assay [2] addresses T2, NAD-dependent protein deacetylase sirtuin-2 (Homo sapiens). The experiment in a line: Induction of recombinant human SIRT2 (50 to 356 residues) deacetylase activity measured after 24 hrs in presence of NAD+ by MALDI-TOF-MS analysis.

Structures are written as SMILES. Active and inactive are the calls of the source. No cut-off for these calls is given here.

The term Kd denotes the constant that tells how readily two partners part at equilibrium. Consider `C/C=C/C(=O)NCCCC[C@H](NC(=O)[C@H](CCCNC(=N)N)NC(=O)[C@H](C)NC(=O)[C@@H](NC(=O)[C@H](CCC(N)=O)NC(=O)[C@H](CCCCN)NC(=O)[C@@H](N)[C@@H](C)O)[C@@H](C)O)C(=O)N[C@@H](CO)C(=O)N[C@H](C(=O)NCC(=O)NCC(=O)N[C@@H](CCCCN)C(=O)N[C@@H](C)C(=O)O)[C@@H](C)O`, for which, at Protein AF-9, the Kd turned out to be 7.8 µM. Further, the Activity in assay [1] (filed as activator) was found to be 60%.

As to `C[C@H](NC(=O)[C@H](CCCCN)NC(=O)CNC(=O)CNC(=O)[C@@H](NC(=O)[C@H](CO)NC(=O)[C@H](CCCCNC(=O)/C=C/c1ccccc1)NC(=O)[C@H](CCCNC(=N)N)NC(=O)[C@H](C)NC(=O)[C@@H](NC(=O)[C@H](CCC(N)=O)NC(=O)[C@H](CCCCN)NC(=O)[C@@H](N)[C@@H](C)O)[C@@H](C)O)[C@@H](C)O)C(=O)O`, the Kd on Protein AF-9 came to 5.1 µM. Also, in assay [2], the result was inactive.

Regarding `C[C@H](NC(=O)[C@H](CCCCN)NC(=O)CNC(=O)CNC(=O)[C@@H](NC(=O)[C@H](CO)NC(=O)[C@H](CCCCNC(=O)/C=C/C(F)(F)F)NC(=O)[C@H](CCCNC(=N)N)NC(=O)[C@H](C)NC(=O)[C@@H](NC(=O)[C@H](CCC(N)=O)NC(=O)[C@H](CCCCN)NC(=O)[C@@H](N)[C@@H](C)O)[C@@H](C)O)[C@@H](C)O)C(=O)O`, at Protein AF-9, the Kd was found to be 48.5 µM. The outcome in assay [2] was inactive.

Regarding `C=CC(=O)NCCCC[C@H](NC(=O)[C@H](CCCNC(=N)N)NC(=O)[C@H](C)NC(=O)[C@@H](NC(=O)[C@H](CCC(N)=O)NC(=O)[C@H](CCCCN)NC(=O)[C@@H](N)[C@@H](C)O)[C@@H](C)O)C(=O)N[C@@H](CO)C(=O)N[C@H](C(=O)NCC(=O)NCC(=O)N[C@@H](CCCCN)C(=O)N[C@@H](C)C(=O)O)[C@@H](C)O`, on Protein AF-9, the dissociation constant (Kd) came to 13.7 µM. For the same compound, the Activity in assay [1] (filed as activator) worked out at 55%.

Consider `CC(C)=CC(=O)NCCCC[C@H](NC(=O)[C@H](CCCNC(=N)N)NC(=O)[C@H](C)NC(=O)[C@@H](NC(=O)[C@H](CCC(N)=O)NC(=O)[C@H](CCCCN)NC(=O)[C@@H](N)[C@@H](C)O)[C@@H](C)O)C(=O)N[C@@H](CO)C(=O)N[C@H](C(=O)NCC(=O)NCC(=O)N[C@@H](CCCCN)C(=O)N[C@@H](C)C(=O)O)[C@@H](C)O`, for which the equilibrium dissociation constant (Kd) at Protein AF-9 was 159 µM. Besides, the Activity stood at 2% in assay [1] and 12% in assay [2].

For `CC/C=C/C(=O)NCCCC[C@H](NC(=O)[C@H](CCCNC(=N)N)NC(=O)[C@H](C)NC(=O)[C@@H](NC(=O)[C@H](CCC(N)=O)NC(=O)[C@H](CCCCN)NC(=O)[C@@H](N)[C@@H](C)O)[C@@H](C)O)C(=O)N[C@@H](CO)C(=O)N[C@H](C(=O)NCC(=O)NCC(=O)N[C@@H](CCCCN)C(=O)N[C@@H](C)C(=O)O)[C@@H](C)O`, the Kd at Protein AF-9 was found to be 13.6 µM. In addition, the Activity in assay [1] (filed as activator) was 75%.

In the case of `C/C=C(\C)C(=O)NCCCC[C@H](NC(=O)[C@H](CCCNC(=N)N)NC(=O)[C@H](C)NC(=O)[C@@H](NC(=O)[C@H](CCC(N)=O)NC(=O)[C@H](CCCCN)NC(=O)[C@@H](N)[C@@H](C)O)[C@@H](C)O)C(=O)N[C@@H](CO)C(=O)N[C@H](C(=O)NCC(=O)NCC(=O)N[C@@H](CCCCN)C(=O)N[C@@H](C)C(=O)O)[C@@H](C)O`, the dissociation constant Kd on Protein AF-9 worked out at 46.5 µM. Also, the Activity in assay [1] stood at 39%.

On to `CC#CC(=O)NCCCC[C@H](NC(=O)[C@H](CCCNC(=N)N)NC(=O)[C@H](C)NC(=O)[C@@H](NC(=O)[C@H](CCC(N)=O)NC(=O)[C@H](CCCCN)NC(=O)[C@@H](N)[C@@H](C)O)[C@@H](C)O)C(=O)N[C@@H](CO)C(=O)N[C@H](C(=O)NCC(=O)NCC(=O)N[C@@H](CCCCN)C(=O)N[C@@H](C)C(=O)O)[C@@H](C)O`, for which the dissociation constant Kd at Protein AF-9 was determined as 20.5 µM. Besides, the Activity in assay [1] turned out to be 30%; in assay [2] (filed as activator), 50%.
